Calls of active or inactive are those of the source. The calls are words filed in the database; no cut-off is given here.
Species: Homo sapiens
Assay: Psychotomimetic potency expressed as the effective dose of mescaline divided by the effective dose in human
Assay type: functional

Question: For `COc1c(CCN)ccc2c1OCO2.Cl`, which Potency is on record?
Answer: 5 MU

Question: How did the Potency turn out when `COc1cc(OC)c(CC(C)N)c(OC)c1.Cl` (stereo unspecified) was run?
Answer: 10 MU

Question: Which Potency does the source give for `COc1cc(CC(C)N)cc(OC)c1OC.Cl` (stereo unspecified) here?
Answer: 2.2 MU

Question: How did the Potency turn out when `COc1ccc(OC)c(CC(C)N)c1.Cl` (stereo unspecified) was run?
Answer: 8 MU

Question: With `COc1cc(CC(C)N)c(OC)cc1C.Cl` (stereo unspecified) as the compound, how does the Potency read?
Answer: 80 MU

Question: For `COc1c(CC(C)N)ccc2c1OCO2.Cl` (stereo unspecified), which Potency is on record?
Answer: 10 MU

Question: For `COc1cc(OC)c(OC)cc1CC(C)N.Cl` (stereo unspecified), which Potency is on record?
Answer: 17 MU

Question: For `COc1ccc(CC(C)N)cc1.Cl` (stereo unspecified), which Potency is on record?
Answer: 5 MU

Question: Which Potency does the source give for `COc1cc(CCN)cc(OC)c1OC.Cl` here?
Answer: 1 MU

Species: Homo sapiens
Assay: Psychotomimetic potency expressed as the effective dose of mescaline divided by the effective dose in human; Inactive
Assay type: functional, organism-based

Question: For `COc1ccc(CC(C)N)c(OC)c1OC` (stereo unspecified), which Potency is on record?
Answer: inactive

Question: How did the Potency turn out when `COc1ccc(CCN)c(OC)c1OC` was run?
Answer: inactive

From ChEMBL document CHEMBL1121894, “Studies on phenethylamine hallucinogens. 2. Conformations of arylmethoxyl groups using 13C NMR” (1981)
